Data on 2 compounds can be found in US20240309389A1, “Chimeric FCeRI a-Chain Gene, Chimeric FCeRI a-Chain Protein, Cells, Analysis Kit and Analysis Method” (TEIKYO HEISEI UNIVERSITY, priority 2021, published 2024).

Common to all, as to type: cell-based, rat
Test [1] deals with RBL-NL4 cells. As to the kind of experiment: Luciferase expression on stimulation in RBL-NL4 cells. The following applies: unsensitized, 250 μM, 37° C., 3 hours. On the procedure: Luciferase expression of when stimulated with ionomycin, anti-human IgE antibody, or specific antigen is confirmed for each of cultures obtained by culturing the seven clones obtained in (2) above and RBL-NL4 cells. Specifically, the confirmation was carried out as follows.
On the day before the test for confirming luciferase expression when the stimulus was applied, the following operations were performed. […] The medium was placed in each well of a white 96-well plate made of plastic with a transparent bottom (product number: 165306, Thremo). Cells of each clone were then seeded at 5×10^4 cells/50 μL per well, and allowed to stand overnight in an incubator for sensitization. […]
After applying the stimulation, 50 μL/well of a substrate solution (One-Glo Luciferase Assay System, Promega) was added to each well and allowed to react for 5 minutes, and then the luminescence intensity was measured using a luminometer (GloMax, Promega).
In FIG. 7, black dots indicate the measured luciferase luminescence intensity (unit: CPS) (right axis: LUMINESCENCE (CPS)). […] The relative luminescence intensity is the relative luminescence intensity when the luminescence intensity of each clone when unstimulated is set to 1, and is shown on a log scale.

In test [2] the test system is HuRa-40 cells. As to the kind of experiment: IgE crosslinking-induced luciferase expression, inhibitor evaluation in HuRa-40 cells. Here is the method: (§1) HuRa-40 cells and RS-ATL8 cells were prepared.
(§2) After washing the sensitized cells with PBS three times, […] was added and stimulated at 37° C. for 3 hours.
(§3) After the stimulation time had elapsed, Bright-Glo (Promega) substrate solution was added to each well in an amount of 50 μL/well, and reacted for 5 minutes at room temperature while shielding from light. After that, the luminescence intensity was measured with a microplate reader (GloMax, Promega).
(§4) A study similar to that described above was performed with cyclosporin A instead of omalizumab. Specifically, RS-ATL8 cells or HuRa-40 cells were added with cyclosporin A at a final concentration of 0 to 1 μg/mL, and, 30 minutes later, 50 ng/ml of human IgE was added to sensitize them overnight. After washing with PBS three times, the cells were stimulated with an anti-human IgE antibody for 3 hours, and Bright-Glo was added to measure luminescence.

For test [3], the system named is RS-ATL8 cells. The test is described as follows: IgE crosslinking-induced luciferase expression, inhibitor evaluation in RS-ATL8 cells. Here is the method:
as §1, §2, §3, §4

The mark [4] stands for this setting: drug added 30 min before 50 ng/ml human IgE overnight sensitization, anti-human IgE stimulation 3 h, read from FIG. 17.
The mark [5] stands for this setting: omalizumab 100 μg/mL, fraction of the 0 μg/mL value.

For the compound `C[C@H](CCC(=O)O)C[C@H](C)C[C@H](C)C(=O)/C=C(\O)[C@H](C)C[C@H](C)C/C=C/[C@@H](C)[C@@H](O)[C@@H](C)[C@@H](O)C[C@@H]1CC[C@@](C)([C@H]2CC[C@@](C)([C@@H](C)O)O2)O1` [ionomycin], the “luciferase expression level compared to anti-human IgE antibody stimulation (no IgE and aIgE)” value in test [1] was “greatly increased”.
Consider Omalizumab, for which the “change of luminescence intensity, concentration increased from 0.1 μg/mL to 1 μg/mL” value in test [2] is “significant decrease in luminescence intensity”; in test [3] it was “decreased slightly”. Moreover, the “50% inhibitory concentration (IC50)” value in test [2] (setting [4]) is “less than 1 μg/mL”; in test [3] (setting [4]), “greater than 1 μg/mL”. Further, the “luminescence intensity at 100 μg/mL compared to 0 μg/mL” value in test [2] (setting [5]) is given as “less than 1/30”; in test [3] (setting [5]), “about ¼”. Further, the “change of luminescence intensity, concentration increased from 1 μg/mL to 10 μg/mL” value in test [3] is “further decreased”.
